Experimental data from patent US5750648A, “Retroviral protease inhibitors and combinations thereof” (G.D. Searle & Co., priority 1994, dated 1998).

Target: HIV protease (Human immunodeficiency virus type 1 group M subtype B, UniProt P04585)
Assay: HIV protease enzyme assay (fluorescent substrate 2-aminobenzoyl-Ile-Nle-Phe(p-NO2)-Gln-ArgNH2)
Format: biochemical
Conditions: @ 10 μM; read-out: inhibition of HIV protease (IC50)
Excerpt: The compounds of the present invention are advantageously effective HIV protease inhibitors. Utilizing an enzyme assay as described below, the compounds set forth in the examples herein disclosed inhibited the HIV enzyme. The preferred compounds of the present invention and their calculated IC50 (the concentration at which the inhibitor compound reduces enzyme activity by 50%) values are shown in Table 2.
The enzyme method is as follows. The substrate is 2-aminobenzoyl-Ile-Nle-Phe(p-NO2)-Gln-ArgNH2. The positive control is MVT-101 (Miller, M. et al, Science, 246, 1149 (1989)). The assay buffer is 20 mM sodium phosphate, pH 6.4, 20% glycerol, 1 mM EDTA, 1 mM DTT and 0.1% CHAPS. The substrate is dissolved in DMSO, then diluted 10 fold in assay buffer. Final substrate concentration in the assay is about 80 μM. HIV protease is diluted in the assay buffer to a final enzyme concentration of about 12.3 nanomolar, based on a molecular weight of 10,780.
The final concentration of DMSO is about 14% and the final concentration of glycerol is about 18%. The test compound is dissolved in DMSO and diluted in DMSO to ten times (10×) the test concentration. Ten microliters (10 μL) of the enzyme preparation is added, the materials mixed and then the mixture is incubated at ambient temperature for 15 minutes. The enzyme reaction is initiated by the addition of 40 μL of substrate. The increase in fluorescence is monitored at 4 time points (0, 8, 16 and 24 minutes) at ambient temperature. Each assay is carried out in duplicate wells.

For `CC(C)CCN(C[C@@H](O)[C@H](Cc1ccccc1)NC(=O)[C@@H](NC(=O)[C@@H]1CCCN1C(=O)OC(C)(C)C)C(C)(C)C)C(=O)NC(C)(C)C` [Example 21, (2R, 3S)-3-(N-tert-butoxycarbonyl-L-prolyl-L-tert-butylglycinyl) amino-1-[N-isoamyl-N-(tert-butylcarbamoyl)]amino-4-phenyl-2-butanol], the inhibition at 10 µM was 61%.

Same assay, conditions: concentration at which the inhibitor reduces enzyme activity by 50%; enzyme about 12.3 nanomolar, substrate about 80 μM, pH 6.4

`CNCC(=O)N[C@H](C(=O)N[C@@H](Cc1ccccc1)[C@H](O)CN(CCC(C)C)C(=O)NC(C)(C)C)C(C)(C)SC` [5 (Part I), (2R, 3S)-3-(N-methylaminoacetyl-S-methyl-L-penicillaminyl)amido-1-[N-isoamyl-N-(tert-butylcarbamoyl)]amino-4-phenyl-2-butanol] and `CC(C)CCN(C[C@@H](O)[C@H](Cc1ccccc1)NC(=O)[C@@H](NC(=O)CNC(=O)OC(C)(C)C)C(C)(C)C)C(=O)NC(C)(C)C` [Example 17, (2R, 3S)-3-(N-tert-butoxycarbonyl-glycinyl-L-tert-butylglycinyl) amino-1-[N-isoamyl-N-(tert-butylcarbamoyl)]amino-4-phenyl-2-butanol] are within 1.5-fold of each other in IC50: 14 nM for the first, 10 nM for the second.

Going from `CC(C)CCN(C[C@@H](O)[C@H](Cc1ccccc1)NC(=O)[C@@H](NC(=O)[C@@H](C)N(C)C(=O)OCc1ccccc1)C(C)(C)C)C(=O)NC(C)(C)C` [Example 15, (2R, 3S)-3-(N-benzyloxycarbonyl-N-methyl-D-alaninyl-L-tert-butylglycinyl)amino-1-[N-isoamyl-N-(tert-butylcarbamoyl)]amino-4-phenyl-2-butanol] to `CC[C@H](C)[C@H](NC(=O)[C@@H](C)N(C)C(=O)OCc1ccccc1)C(=O)N[C@@H](Cc1ccccc1)[C@H](O)CN(CCC(C)C)C(=O)NC(C)(C)C` [Example 22, (2R, 3S)-3-(N-benzyloxycarbonyl-N-methyl-D-alaninyl-L-isoleucinyl)amino-1-[N-isoamyl-N-(tert-butylcarbamoyl)]amino-4-phenyl-2-butanol], the IC50 rises from 70 nM to 370 nM (5.3-fold).

First: CC(C)CCN(C[C@@H](O)[C@H](Cc1ccccc1)NC(=O)[C@@H](NC(=O)[C@@H]1CCCN1C(=O)OCc1ccccc1)C(C)(C)C)C(=O)NC(C)(C)C [Example 19, (2R, 3S)-3-(N-benzyloxycarbonyl-L-prolyl-L-tert-butylglycinyl) amino-1-[N-isoamyl-N-(tert-butylcarbamoyl)]amino-4-phenyl-2-butanol]
Second: CC[C@H](C)[C@H](NC(=O)[C@@H]1CCCN1C(=O)OCc1ccccc1)C(=O)N[C@@H](Cc1ccccc1)[C@H](O)CN(CCC(C)C)C(=O)NC(C)(C)C [Example 24, (2R, 3S)-3-(N-benzyloxycarbonyl-L-prolyl-L-isoleucinyl)amino-1-[N-isoamyl-N-(tert-butylcarbamoyl)]amino-4-phenyl-2-butanol]
The IC50 of the first is 4.2-fold higher: 2200 nM for the first, 520 nM for the second. The second is the more potent here.

Compared with `CC(C)CCN(C[C@@H](O)[C@H](Cc1ccccc1)NC(=O)[C@@H](NC(=O)[C@@H]1CCCN1)C(C)(C)C)C(=O)NC(C)(C)C` [Example 20, (2R, 3S)-3-(L-prolyl-L-tert-butylglycinyl)amino-1-[N-isoamyl-N-(tert-butylcarbamoyl)]amino-4-phenyl-2-butanol], `CC[C@H](C)[C@H](NC(=O)[C@@H]1CCCN1)C(=O)N[C@@H](Cc1ccccc1)[C@H](O)CN(CCC(C)C)C(=O)NC(C)(C)C` [Example 25, (2R, 3S)-3-(L-prolyl-L-isoleucinyl)amino-1-[N-isoamyl-N-(tert-butylcarbamoyl)]amino-4-phenyl-2-butanol] is 5.7-fold higher in IC50: 9 nM for the first, 51 nM for the second. The first is the more potent here.

Compound `CC[C@H](C)[C@H](NC(=O)[C@@H](C)NC)C(=O)N[C@@H](Cc1ccccc1)[C@H](O)CN(CCC(C)C)C(=O)NC(C)(C)C` [Example 23, (2R, 3S)-3-(N-methyl-D-alaninyl-L-isoleucinyl)amino-1-[N-isoamyl-N-(tert-butylcarbamoyl)]amino-4-phenyl-2-butanol] has an IC50 of 79 nM.
